Data from patent US8906914B2, “Ethylene diamine modulators of fatty acid hydrolase” (priority 2009, dated 2014).
Counter-ions that a name gives are not always drawn.

Legend:
[1] = test system: spasticity; conditions: Baker 2001; cited from earlier work
[2] = test system: neuropathic pain; conditions: rats; WO 02/087569; cited from earlier work
[3] = test system: acute thermal nociception; conditions: rats; WO 02/087569; cited from earlier work
[4] = target: T1, Rat FAAH-1 (Rattus norvegicus, UniProt P97612); test: Rat FAAH-1 assay (Assay Method 2), 3H-anandamide hydrolysis in cell homogenate; type: biochemical
T1 construct: expressed in transfected cells
T1 sequence (P97612 1-579): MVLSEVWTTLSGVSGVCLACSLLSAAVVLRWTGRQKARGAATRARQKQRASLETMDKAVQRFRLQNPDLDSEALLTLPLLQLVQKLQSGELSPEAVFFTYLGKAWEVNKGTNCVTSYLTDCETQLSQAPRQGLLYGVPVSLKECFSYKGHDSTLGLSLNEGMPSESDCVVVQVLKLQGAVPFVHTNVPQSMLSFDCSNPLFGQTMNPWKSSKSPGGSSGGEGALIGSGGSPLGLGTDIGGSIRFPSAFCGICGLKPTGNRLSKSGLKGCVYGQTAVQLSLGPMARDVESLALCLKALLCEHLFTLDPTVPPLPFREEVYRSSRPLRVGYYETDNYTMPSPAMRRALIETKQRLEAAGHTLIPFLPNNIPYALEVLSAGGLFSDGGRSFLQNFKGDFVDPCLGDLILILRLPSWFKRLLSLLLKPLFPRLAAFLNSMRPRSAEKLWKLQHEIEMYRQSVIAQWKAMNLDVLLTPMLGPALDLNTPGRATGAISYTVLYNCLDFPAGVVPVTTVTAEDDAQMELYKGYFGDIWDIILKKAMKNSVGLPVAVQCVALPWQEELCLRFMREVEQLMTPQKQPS
Outline: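 Homogenate of SK-N-MC cells stably transfected with rat FAAH cDNA, incubated with test compound and 80 nM final 3H-anandamide (ethanolamine-labelled) for 1 h at rt. Released 3H-ethanolamine separated from substrate on activated charcoal filters by centrifugation and counted by scintillation.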

[5] = target: T2, FAAH (Homo sapiens, UniProt O00519); test: Human FAAH assay (Assay Method 1), 3H-anandamide hydrolysis in cell homogenate; type: biochemical; set-up: expressed in transfected cells; alternatively T84 frozen cell pellets (endogenous FAAH)
T2 sequence (O00519 1-579): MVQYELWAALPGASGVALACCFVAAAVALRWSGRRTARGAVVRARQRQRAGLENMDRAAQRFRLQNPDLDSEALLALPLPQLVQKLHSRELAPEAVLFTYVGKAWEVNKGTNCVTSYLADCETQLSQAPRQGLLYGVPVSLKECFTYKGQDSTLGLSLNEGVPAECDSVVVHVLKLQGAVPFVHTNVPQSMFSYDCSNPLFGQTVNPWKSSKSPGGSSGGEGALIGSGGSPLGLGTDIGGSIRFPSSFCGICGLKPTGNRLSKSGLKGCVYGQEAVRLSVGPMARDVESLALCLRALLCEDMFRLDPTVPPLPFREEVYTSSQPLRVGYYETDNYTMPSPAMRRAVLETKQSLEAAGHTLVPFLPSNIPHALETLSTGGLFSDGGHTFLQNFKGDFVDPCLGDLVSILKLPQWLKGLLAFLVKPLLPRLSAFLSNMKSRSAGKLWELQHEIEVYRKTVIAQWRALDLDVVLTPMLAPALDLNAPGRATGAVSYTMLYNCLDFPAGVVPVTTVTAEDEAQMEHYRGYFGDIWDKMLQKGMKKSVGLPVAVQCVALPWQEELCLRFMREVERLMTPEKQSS
Outline: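 Homogenate of SK-N-MC cells stably transfected with human FAAH, incubated with compound and 80 nM (final) 3H-anandamide for 1 h at rt. Released 3H-ethanolamine separated from substrate on activated charcoal by centrifugation and counted by scintillation; ">" values denote solubility limit or top concentration tested.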

[6] = test system: thermal nociception; conditions: rat; cited from earlier work
[7] = test system: thermal nociception; conditions: rats; WO 04/033652; cited from earlier work
[8] = target: T2, FAAH; conditions: reported; cited from earlier work
[9] = test system: nociception; conditions: rat; Kathuria 2003; cited from earlier work
[10] = test system: anxiety; conditions: rats; Kathuria 2003; cited from earlier work

Row | SMILES | IC50 [4] [nM] | IC50 [5] [nM] | further results
1 | CCCCCCCCCCCCCCCCS(=O)(=O)F [AM374] | – | – | spasticity in CREAE mice [1]: significantly reduce spasticity
2 | Cc1nc(-c2ccccc2)c(-c2ccccc2)n1CCCCCCNC(=O)Oc1ccccc1F [BMS-1] | – | – | analgesic effect in Chung spinal nerve ligation model [2]: analgesic effect; analgesic effect in Hargraves test [3]: analgesic effect
3 | N[C@H](CNc1cc(-c2ccc(C(F)(F)F)c(Cl)c2)ncn1)c1ccc(F)c(Cl)c1 [Example 46, (1S)—N^2-1-(3-Chloro-4-fluoro-phenyl)-[6-(3-chloro-4-trifluoromethyl-phenyl)-pyrimidin-4-yl]-ethane-1,2-diamine] | 3000 | 3000 | –
4 | N[C@@H](CNc1cc(-c2ccc(C(F)(F)F)c(Cl)c2)ncn1)c1ccc(F)c(Cl)c1 [Example 47, (1R)—N^2-1-(3-Chloro-4-fluoro-phenyl)-[6-(3-chloro-4-trifluoromethyl-phenyl)-pyrimidin-4-yl]-ethane-1,2-diamine] | 115 | 120 | –
5 | N#Cc1cccc([C@H](N)CNc2cc(-c3ccc(C(F)(F)F)c(Cl)c3)ncn2)c1 [Example 48, (1S)-3-{1-Amino-2-[6-(3-chloro-4-trifluoromethyl-phenyl)-pyrimidin-4-ylamino]-ethyl}-benzonitrile] | 3000 | 3000 | –
6 | N#Cc1cccc([C@@H](N)CNc2cc(-c3ccc(C(F)(F)F)c(Cl)c3)ncn2)c1 [Example 49, (1R)-3-{1-Amino-2-[6-(3-chloro-4-trifluoromethyl-phenyl)-pyrimidin-4-ylamino]-ethyl}-benzonitrile] | 770 | 1000 | –
7 | N[C@@H](CNc1cc(-c2ccc(C(F)(F)F)c(Cl)c2)ncn1)c1ccc2ccccc2c1 [Example 51, (1R)—N^2-[6-(3-Chloro-4-trifluoromethyl-phenyl)-pyrimidin-4-yl]-1-naphthalen-2-yl-ethane-1,2-diamine] | 40 | 125 | –
8 | N#Cc1ccc([C@@H](N)CNc2cc(-c3ccc(C(F)(F)F)c(Cl)c3)ncn2)cc1F [Example 52, (1R)-4-{1-Amino-2-[6-(3-chloro-4-trifluoromethyl-phenyl)-pyrimidin-4-ylamino]-ethyl}-2-fluoro-benzonitrile] | 240 | 130 | –
9 | CSc1ccc([C@@H](N)CNc2cc(-c3ccc(C(F)(F)F)c(Cl)c3)ncn2)cc1 [Example 54, (1R)—N^2-[6-(3-Chloro-4-trifluoromethyl-phenyl)-pyrimidin-4-yl]-1-(4-methylsulfanyl-phenyl)-ethane-1,2-diamine] | 150 | 220 | –
10 | COc1ccccc1[C@@H](N)CNc1cc(-c2ccc(C(F)(F)F)c(Cl)c2)ncn1 [Example 56, (1R)—N^2-[6-(3-Chloro-4-trifluoromethyl-phenyl)-pyrimidin-4-yl]-1-(2-methoxy-phenyl)-ethane-1,2-diamine] | 6000 | 1200 | –
11 | N[C@@H](CNc1cc(-c2ccc(C(F)(F)F)c(Cl)c2)ncn1)c1ccc(SC(F)(F)F)cc1 [Example 61, (1R)—N^2-[6-(3-Chloro-4-trifluoromethyl-phenyl)-pyrimidin-4-yl]-1-(4-trifluoromethylsulfanyl-phenyl)-ethane-1,2-diamine] | 130 | 180 | –
12 | N#Cc1cc([C@@H](N)CNc2cc(-c3ccc(C(F)(F)F)c(Cl)c3)ncn2)ccc1F [Example 62, (1R)-5-{1-Amino-2-[6-(3-chloro-4-trifluoromethyl-phenyl)-pyrimidin-4-ylamino]-ethyl}-2-fluoro-benzonitrile] | 300 | 320 | –
13 | CS(=O)(=O)c1ccc([C@@H](N)CNc2cc(-c3ccc(C(F)(F)F)c(Cl)c3)ncn2)cc1 [Example 63, (1R)—N^2-[6-(3-Chloro-4-trifluoromethyl-phenyl)-pyrimidin-4-yl]-1-(4-methanesulfonyl-phenyl)-ethane-1,2-diamine] | > 10000 | > 10000 | –
14 | N[C@@H](CNc1cc(-c2ccc(OC(F)(F)F)c(F)c2)ncn1)c1ccc(F)cc1 [Example 64, (1R)—N^2-1-(4-Fluoro-phenyl)-[6-(3-fluoro-4-trifluoromethoxy-phenyl)-pyrimidin-4-yl]-ethane-1,2-diamine, trifluoroacetic acid salt] | 75 | 66 | –
15 | N[C@@H](CNc1cc(-c2ccc3c(C(F)(F)F)noc3c2)ncn1)c1ccc(F)cc1 [Example 65, (1R)—N^2-1-(4-Fluoro-phenyl)-[6-(3-trifluoromethyl-benzo[d]isoxazol-6-yl)-pyrimidin-4-yl]ethane-1,2-diamine, trifluoroacetic acid salt] | 57 | 45 | –
16 | O=C(CCCCCCc1ccccc1)c1ncc(-c2ccccn2)o1 [OL-135] | – | – | analgesic efficacy/activity in hot plate test [6]: analgesic activity; analgesic activity in tail emersion test [7]: analgesic activity; inhibition of FAAH [8]: potent inhibitor
17 | NC(=O)c1cccc(-c2cccc(OC(=O)NC3CCCCC3)c2)c1 [URB-597] | – | – | analgesic efficacy/activity in hot plate test [6]: analgesic efficacy; analgesic efficacy in formalin test [9]: analgesic efficacy; efficacy in zero plus maze model of anxiety [10]: efficacy
